Experimental data: US9131685B2, “Compositions comprising a strigolactone compound and a chito-oligosaccharide compound for enhanced plant growth and yield” (Bayer CropScience AG, priority 2009, dated 2015)

Key:
[1] = system: soybean seeds; assay: Germination test on soybean (agar plates, climate chamber); assay type: in vivo, soybean (variety Cordoba); conditions: seed treatment, 10° C. in darkness, after 4 days, average of 5 replicates of 20 seeds
Protocol: (§1) Test is performed in a climate chamber. 20 soybean seeds per treatment of the variety Cordoba were sown on agar plates (0.8% agar). 5 replicates were made. The active ingredient was solved in a solvent and seed treatment was performed with a lab equipment. Plates were incubated at 10° C. in darkness. After 4 days the germination rate and root length were assessed.
(§2) average of 5 replicates of 20 seeds

[2] = system: soybean; assay: Greenhouse experiments on soybean (seed treatment, root weight and leaf area); assay type: in vivo, soybean (variety Cordoba); conditions: sand/perlite with arbuscular mycorrhizal inoculum, 6 weeks greenhouse, average of 3 replicates of 5 plants
Protocol: Test is performed in the greenhouse. 5 soybean seeds per treatment of the variety Cordoba were sown in 500 ml rose pots (7×7×18 cm) containing a mix of sand and perlite (1:1). 3 replicates were made. The active ingredient was solved in a solvent and seed treatment was performed with a lab equipment.
To inoculate with arbuscular mycorrhizal fungi, 10 g inoculum (Vaminoc; MicroBio Ltd.) were mixed with 1 l of the sand-perlite mixture.
Seeds were covered by 3 cm of LECA (light expanded clay aggregate). Pots were incubated in the greenhouse for 6 weeks at 22° C./15° C. (day/night) and 80% relative humidity. Assessment consisted of root weight and leaf area.
average of 3 replicates of 5 plants

[3] = system: wheat seeds; assay: Germination test on wheat (agar plates, climate chamber); assay type: in vivo, wheat (variety Tuareg); conditions: seed treatment, 10° C. in darkness, after 2 days, average of 5 replicates of 20 seeds
Protocol: as §1, with “For wheat experiments” for “Test is performed in a climate chamber.”, “wheat” for “soybean”, “Tuareg” for “Cordoba”, “(1.4%” for “(0.8%”, “2” for “4”
as §2

[4] = system: Winter wheat; assay: Field trials 2: winter wheat, Germany (Bergisches Land); assay type: in vivo, Winter wheat (variety Dekan); conditions: in comparison to the untreated control
Protocol: b) Field trials 2: Winter wheat: Germany (Bergisches Land):
Seeds of the variety “Dekan” were planted on December with a seed density of 400 seeds/m^2 on a non-fertilized soil. The plot size was 6 m×2.5 m (=15 m^2) and four randomised replicates were used. The application of plant protection products were carried out according to the good agricultural practise. The evaluation of different growth parameters was done during the season.
Dosages Winter Wheat (Bergisches Land):
Base: Insecticide (I): Imidacloprid; Fungicides (F): Fluoxastrobin & Tebuconazole & Prothioconazole.

| SMILES | Germination rate [1] | Root length [1] | Leaf Area [2] | Root weight [2] | Germination rate [3] | Root length [3] | yield in dt/ha, in words [4] |
| --- | --- | --- | --- | --- | --- | --- | --- |
| CC1=CC(O/C=C2/C(=O)OC3c4ccccc4CC23)OC1=O (stereo not shown) [Compound A1] | 63% | 5.19 cm | 35.67 cm^2 | 11.13 g | 27% | 3.04 cm | – |
| OC(Cc1ccccc1Cl)(Cn1nc[nH]c1=S)C1(Cl)CC1 (stereo not shown) [Prothioconazole, reference compound] | – | – | 20.58 cm^2 | 16.8 g | – | – | – |
| CCCCCC/C=C\CCCOc1cccc(C(=O)NC2C(O[C@@H]3C(CO)OC(OC4C(CO)O[C@@H](O[C@@H]5C(CO)OC(OC6C(CO)OC(O)C(NC(C)=O)C6O)C(NC(C)=O)C5O)C(NC(C)=O)C4O)C(NC(C)=O)C3O)OC(CO)[C@@H](O)C2O)c1 (stereo partly shown) [Compound B1] | 58% | 5.64 cm | 36.82 cm^2 | 9.19 g | 8% | 2.34 cm | increased yield |
| CCCCCC/C=C\CCCOc1cccc(C(=O)NC2C(O[C@@H]3C(CO)OC(OC4C(CO)O[C@@H](O[C@@H]5C(CO)OC(OC6C(CO[C@@H]7OC(C)C(O)C(O)C7OC)OC(O)C(NC(C)=O)C6O)C(NC(C)=O)C5O)C(NC(C)=O)C4O)C(NC(C)=O)C3O)OC(CO)[C@@H](O)C2O)c1 (stereo partly shown) [Compound B3] | 59% | 5.13 cm | – | – | 17% | 2.18 cm | – |
| CON=C(C(=O)OC)c1ccccc1CON=C(C)c1cccc(C(F)(F)F)c1 [Trifloxystrobin, reference compound] | – | – | 24.80 cm^2 | 18.2 g | – | – | – |
| CCCCCC/C=C\CCCOc1cccc(C(=O)NC2C(O)[C@H](O)C(CO)O[C@H]2O[C@@H]2C(CO)O[C@@H](O[C@@H]3C(CO)O[C@@H](O[C@@H]4C(CO)O[C@@H](O[C@@H]5C(CO[C@@H]6OC(C)[C@@H](O)C(O)C6O)OC(O)C(NC(C)=O)C5O)C(NC(C)=O)C4O)C(NC(C)=O)C3O)C(NC(C)=O)C2O)c1 (stereo partly shown) [Compound B2] | 68% | 5.61 cm | – | – | 18% | 2.02 cm | – |
